According to patent US20120107385A1, “METHOD OF TREATING CONDITIONS ASSOCIATED WITH OVERACTIVE BLADDER” (priority 2010, published 2012):

Assay: Plasma oxybutynin and N-desethyloxybutynin following oral and intravaginal administration in dogs (14 day study)
Protocol: A study was conducted to determine the levels of oxybutynin and its active metabolite, N-desethyloxybutynin, present in plasma following oral and intravaginal administration of oxybutynin in dogs.
A 14 day study was conducted, where 8 young adult females were randomly assigned to 4 groups of 2 dogs each.

## CCN(CC)CC#CCOC(=O)C(O)(c1ccccc1)C1CCCCC1 (centres unmarked) [oxybutynin, 4-diethylaminobut-2-ynyl2-cyclohexyl-2-hydroxy-2-phenyl-ethanoate]
Oral 10 mg/day
  plasma level of oxybutynin at 8 h or more after oral dosing: ≤ 2.75 ng/mL
plasma
  time after dosing at which Cmax of oxybutynin was achieved: 3 h
